Patent publication US20140314686A1, “POLYPHENOL/FLAVONOID COMPOSITIONS AND METHODS OF FORMULATING ORAL HYGIENIC PRODUCTS” (API Genesis, LLC, priority 2013, published 2014)
In brackets after ≈: the same amount, converted by molar mass.

What was measured:
[1] = Solubility in PS80 via the thermal processing method (polyphenol/surfactant concentrate); conditions: for solubility: 20 °C, organic solvent or mixture; for PS80 Solution Temp.: temperature of complete solubilization in PS80
Protocol: The molar ratio of active agent (polyphenol) to solubilizing agent (surfactant) is typically 1:2 to 1:5, and at times much greater, e.g. 1:2 to 1:20 depending on the active agent/surfactant combination.
Apigenin/Polysorbate 80 (PS80) formulations can be made as follows: • Apigenin powder and PS80 are mixed in the ratio from about 5 to 10 wt. % of apigenin to 95 to 90 wt. % PS80.
All solubility tests were conducted with 20 ml of PS80 contained within 80 ml Pyrex glass beakers.

[2] = EGCG retention in saliva after brushing with alkaline EGCG toothpaste (colour on alkalizing); format: in vivo, human; conditions: PeroxiCare toothpaste with 0.1 wt. % EGCG and 0.1 wt. % ascorbic acid, saliva after brushing and rinsing
Protocol: A saliva sample with an EGCG containing alkaline toothpaste was obtained (1) before brushing and (2) 1 minute after brushing immediately after rinsing. The subject brushed for 2 minutes using the sulcular brushing technique with ˜1.8 gm toothpaste on a toothbrush. […] A 5 ml sample of saliva was collected 10 minutes prior to brushing. Tooth brushing was conducted for 2 minutes with 1.8 gm of toothpaste applied to the brush. One minute after brushing, the oral cavity was rinsed with 50 ml of water. Following rinsing, about 8 ml of saliva was collected. The pH of the saliva was measured. In addition, the saliva samples were further made alkaline with the addition of NaOH crystals and the color of the resulting sample noted.

[3] = Solubilization in Listerine mouth rinse via sodium salt and pH adjustment; format: physicochemical
Protocol: 100 grams of the Listerine® Resveratrol Containing Mouth Rinse formulation was prepared as follows: • 1. 98.4 grams of the Listerine® caramel colored mouth rinse was added to a 300 ml Pyrex glass beaker. […] About 0.2 grams of fine NaOH crystals were added to the mixture from Step 2 and thoroughly mixed. A uniformly caramel colored blend resulted with a measured pH of ˜10. […] The pH the mixture from Step 3 was adjusted to a pH 6.5 by the addition of about 0.2 grams of citric acid crystals. […] • 1. 98.6 grams of the Listerine® caramel colored mouthrinse was added to a 300 ml Pyrex glass beaker. […] About 0.2 grams of fine NaOH crystals were added to the mixture from Step 2 and thoroughly mixed. A uniformly caramel colored blend resulted with a measured pH of ˜10. […] The pH the mixture from Step 2 was adjusted to a pH 8 by the addition of about 0.2 grams of citric acid crystals.

[4] = pH required for a stable aqueous microemulsion with nonionic surfactants; format: physicochemical; conditions: nonionic surfactants Polysorbate 80 and Cremophor RH40
Description: In one embodiment, a flavonoid/polyphenol microemulsion can be made as follows: • The mixing of a flavonoid/polyphenol with an alkali metal component (e.g., alkali metal hydroxide(s) and/or alkaline metal salt(s)) to form an alkali metal flavonoid/polyphenol salt within an aqueous solution. • Adding a surfactant in the ratio from about 5 to 20 wt. % of the flavonoid/polyphenol to 95 to 80 wt. % of a surfactant; preferable a nonionic surfactant. • This mixture is thoroughly stirred to form a uniform clear solution. • Adjusting (e.g., acidifying) the alkali metal flavonoid/polyphenol salt with an agent (e.g., an acidic agent such as acetic acid and/or hydrochloric acid) to a pH level required to form a clear and stable microemulsion.
Stable microemulsions with apigenin and the nonionic surfactants, Polysorbate 80 and Cremophor RH40, were achieved provided a pH level of 8.0 to 8.5 was maintained. For luteolin, it as determined that a pH of 7 was required to maintain a stable aqueous microemulsion; and for resveratrol, a pH of >4.5 to 7.5.

[5] = Stability of soluble flavone sodium salts in bicarbonate/peroxide dentifrice; format: physicochemical; conditions: dentifrice with sodium bicarbonate, peroxide and peroxide stabilizer, pH ~10-10.5
Protocol: It was experimentally determined that the toothpaste formulations containing both sodium bicarbonate and sodium carbonate peroxide together with stabilizing polymer formulations had pHs of ˜10-10.5. When aglycone flavone (i.e., apigenin and luteolin) powders were added to dentifrices including sodium bicarbonate, sodium bicarbonate peroxide and a peroxide stabilizer, it was also determined that soluble flavone sodium salts were formed that were stable in these highly oxidative peroxide compositions. The presence of stable soluble alkali metal flavone salts with highly anti-oxidant and anti-inflammatory properties in an emulsion formulation was totally unanticipated since aglycone flavones are prone to oxidative decomposition.

Compound: O=c1c(-c2ccc(O)cc2)coc2cc(O)cc(O)c12 [Genistein]
- solubility (Solubility in water; 20 °C, water): 0.12 mg/mL (≈ 444 µM)
- solubility [1]: 50 mg/mL
- PS80 Solution Temp. [1]: ~220 °C

Compound: O=C(O[C@@H]1Cc2c(O)cc(O)cc2O[C@@H]1c1cc(O)c(O)c(O)c1)c1cc(O)c(O)c(O)c1 [Epigallocatechin Gallate (EGCG), Epigallocatechin gallate]
- solubility (Solubility in water; water, 20 °C): ~25 mg/mL (≈ 54500 µM)
- solubility ([1]; Polysorbate 80 (PS80)): 50 mg/mL
- PS80 Solution Temp. [1]: ~150 °C
- retention in saliva (red/brown color on alkalizing saliva to pH ~10.5) [2]: retained

Compound: O=c1cc(-c2ccc(O)c(O)c2)oc2cc(O)cc(O)c12 [Luteolin, 3′,4′,5,7-tetrahydroxyflavone]
- concentration in transparent solution ([3]; NaOH to pH ~10, citric acid to pH 8): 1500 µg/mL
- pH level for a stable aqueous microemulsion [4]: 7
- stability of soluble flavone sodium salt in oxidative peroxide composition [5]: stable

Compound: O.Oc1cc(O)c2c(c1)O[C@H](c1ccc(O)c(O)c1)[C@@H](O)C2 [Catechin]
- Water Solubility (Solubility in water; at 20° C.): ~5 mg/mL
- PS80 Solubility ([1]; at 20° C., 20 ml PS80, not the maximum solubility levels in PS80): 50 mg/mL
- PS80 Solution Temp. [1]: ~210 °C

Compound: Oc1ccc(C=Cc2cc(O)cc(O)c2)cc1 [Resveratrol, resveratrol]
- concentration in transparent solution ([3]; NaOH to pH ~10, citric acid to pH 6.5): 1200 µg/mL

Compound: O=c1cc(-c2ccccc2)oc2cc(O)cc(O)c12 [Chrysin]
- solubility (Solubility in water; water, 20 °C): 0.08 mg/mL (≈ 315 µM)
- solubility ([1]; Polysorbate 80 (PS80)): 50 mg/mL
- PS80 Solution Temp. [1]: ~140 °C

Compound: O=c1cc(-c2ccc(O)cc2)oc2cc(O)cc(O)c12 [Apigenin, 4′,5,7,-trihydroxyflavone]
- stability of soluble flavone sodium salt in oxidative peroxide composition [5]: stable
- concentration of stable concentrate in PS80 ([1]; 5.0 wt. % in PS80, heated approaching 300 degree C, cooled to ambient): 50000 µg/mL

Compound: O=C1C[C@@H](c2ccc(O)cc2)Oc2cc(O)cc(O)c21 [Naringenin]
- solubility (Solubility in water; water, 20 °C): 0.04 mg/mL (≈ 147 µM)
- solubility ([1]; Polysorbate 80 (PS80)): 50 mg/mL
- PS80 Solution Temp. [1]: ~280 °C
